From PMC4412958 (The Open Medicinal Chemistry Journal, 2015) come the findings set out here.

The target in this assay is BACE-1 (Homo sapiens, UniProt P56817). Description: BACE-1 enzyme assay. In kind it is biochemical. As to conditions: Boc-protected compound; enzyme- and cell-based screening.
Sequence of BACE-1 (P56817 46-501): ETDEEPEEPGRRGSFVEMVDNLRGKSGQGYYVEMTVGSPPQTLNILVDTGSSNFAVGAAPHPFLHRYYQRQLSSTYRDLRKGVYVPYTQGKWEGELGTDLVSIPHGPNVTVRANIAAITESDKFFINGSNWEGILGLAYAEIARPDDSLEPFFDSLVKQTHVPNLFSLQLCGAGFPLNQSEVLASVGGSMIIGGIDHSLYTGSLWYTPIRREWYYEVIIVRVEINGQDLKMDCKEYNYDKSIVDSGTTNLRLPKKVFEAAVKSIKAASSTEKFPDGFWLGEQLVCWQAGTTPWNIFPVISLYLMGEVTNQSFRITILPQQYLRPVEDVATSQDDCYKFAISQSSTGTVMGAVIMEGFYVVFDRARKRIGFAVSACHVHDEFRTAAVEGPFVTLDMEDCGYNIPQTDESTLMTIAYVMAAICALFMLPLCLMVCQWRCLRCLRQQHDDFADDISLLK

In the case of `Cc1cc2cc(c1)C(=O)N[C@H]([C@H](O)CN(Cc1cccc(C(C)C)c1)C(=O)OC(C)(C)C)CCC/C=C/CCCC2=O` [Compound 27b, (R)-2-Hydroxy-2-((E)-(S)-16-methyl-2,13-dioxo-3-aza-bicyclo[12.3.1]octadeca-1(17),8,14(18),15-tetraen-4-yl)-ethyl-(3-isopropyl-benzyl)-carbamic acid tert-butyl ester], the “BACE-1 activity (in words)” value was “inactive”.
